Source: patent US20200017495A1, “NOVEL HETEROCYCLIC COMPOUNDS AND THEIR USE IN PREVENTING OR TREATING BACTERIAL INFECTIONS” (priority 2017, published 2020)
Where two headings read alike, the source gives them in different places.

How the values were obtained:
Experiment in all cases: MIC of compounds alone and combined with antibacterials, broth microdilution (CLSI)
Type in all cases: cell-based
[1] = test system: Klebsiella oxytoca (KOX) isolates; details: Klebsiella oxytoca, alone, read-out: MIC
Procedure, shortened: (§1)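 Broth microdilution in cation-adjusted Mueller-Hinton broth, inoculum 5.10^5 CFU/mL, 16-20 h at 35° C in ambient air, on genotyped isolates. Compound MIC, alone or with an antibacterial, taken visually as lowest concentration preventing growth; antibacterial MIC determined at each compound concentration.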

[2] = test system: Enterobacter cloacae (ECL) isolates; details: Enterobacter cloacae, read-out: MIC
Procedure, shortened: as §1

[3] = test system: Serratia marcescens (SMA) isolates; details: Serratia marcescens, read-out: MIC
Procedure, shortened: as §1

[4] = test system: Escherichia coli (ECO) isolates; details: Escherichia coli, read-out: MIC
Procedure, shortened: as §1

[5] = test system: Providencia rettgeri (PRE) isolates; details: Providencia rettgeri, read-out: MIC
Procedure, shortened: as §1

With `O=C1N2CC(n3cccn3)=CC(C2)N1OC(F)(F)C(=O)[O-].[Li+]` (centres unmarked) [AF3] as the compound, how does the MIC ([1]; KOX UFR21) read?
Its MIC is over 32 µg/mL.

What about the MIC ([1]; KOX UFR173) of the same compound?
Its MIC is 16 µg/mL.

And the MIC ([1]; KOX UFR223)?
The MIC was 8 µg/mL.

And the MIC ([1]; KOX UFR224)?
Its MIC is 8 µg/mL.

And the MIC ([2]; ECL 2185D, alone)?
Its MIC is 32 µg/mL.

And the MIC ([2]; ECL 190310, alone)?
The MIC was 32 µg/mL.

What about the MIC ([2]; ECL 190408, alone) of the same compound?
The MIC was 4 µg/mL.

What about the MIC ([2]; ECL 200138, alone) of the same compound?
The MIC was 16 µg/mL.

What about the MIC ([2]; ECL 200322, alone) of the same compound?
Its MIC is 8 µg/mL.

And the MIC ([2]; ECL 260033, alone)?
Its MIC is 16 µg/mL.

What about the MIC ([2]; ECL 260253, alone) of the same compound?
The MIC was 32 µg/mL.

What about the MIC ([2]; ECL 260323, alone) of the same compound?
The MIC was 16 µg/mL.

And the MIC ([2]; ECL 260508, alone)?
Its MIC is 8 µg/mL.

What about the MIC ([2]; ECL HAN, alone) of the same compound?
The MIC was 32 µg/mL.

What about the MIC ([2]; ECL NEM146383, alone) of the same compound?
The MIC was 16 µg/mL.

What about the MIC ([2]; ECL P99, alone) of the same compound?
The MIC was 16 µg/mL.

And the MIC ([2]; ECL UFR12, alone)?
Its MIC is 8 µg/mL.

And the MIC ([2]; ECL UFR13, alone)?
The MIC was 32 µg/mL.

What about the MIC ([2]; ECL UFR14, alone) of the same compound?
Its MIC is 32 µg/mL.

What about the MIC ([2]; ECL UFR38, alone) of the same compound?
The MIC was 8 µg/mL.

What about the MIC ([2]; ECL UFR51, alone) of the same compound?
The MIC was 8 µg/mL.

And the MIC ([2]; ECL UFR60, alone)?
Its MIC is 16 µg/mL.

And the MIC ([2]; ECL UFR70, alone)?
Its MIC is 8 µg/mL.

What about the MIC ([2]; ECL UFR84, alone) of the same compound?
The MIC was 32 µg/mL.

And the MIC ([2]; ECL UFR85, alone)?
Its MIC is 16 µg/mL.

What about the MIC ([2]; ECL UFR200, alone) of the same compound?
The MIC was 16 µg/mL.

What about the MIC ([2]; strain ECL UFR192, compound alone) of the same compound?
The MIC was 32 µg/mL.

What about the MIC ([2]; strain ECL UFR193, compound alone) of the same compound?
The MIC was 16 µg/mL.

What about the MIC ([2]; strain ECL UFR194, compound alone) of the same compound?
Its MIC is 16 µg/mL.

What about the MIC ([2]; strain ECL UFR195, compound alone) of the same compound?
The MIC was 16 µg/mL.

What about the MIC ([2]; strain ECL UFR196, compound alone) of the same compound?
The MIC was 16 µg/mL.

What about the MIC ([2]; strain ECL UFR197, compound alone) of the same compound?
The MIC was 16 µg/mL.

And the MIC ([2]; strain ECL UFR198, compound alone)?
The MIC was 32 µg/mL.

And the MIC ([2]; strain ECL UFR203, compound alone)?
The MIC was 32 µg/mL.

What about the MIC ([2]; strain ECL UFR214, compound alone) of the same compound?
The MIC was over 32 µg/mL.

And the MIC ([2]; strain ECL UFR252PT, compound alone)?
Its MIC is over 32 µg/mL.

What about the MIC ([3]; SMA UFR30, alone) of the same compound?
The MIC was 8 µg/mL.

What about the MIC ([3]; SMA UFR134, alone) of the same compound?
Its MIC is 32 µg/mL.

What about the MIC ([3]; SMA UFR135, alone) of the same compound?
The MIC was over 32 µg/mL.

What about the MIC ([3]; SMA UFR136, alone) of the same compound?
The MIC was over 32 µg/mL.

And the MIC ([3]; SMA UFR137, alone)?
The MIC was 32 µg/mL.

And the MIC ([3]; SMA UFR138, alone)?
Its MIC is 16 µg/mL.

What about the MIC ([3]; SMA UFR139, alone) of the same compound?
Its MIC is 32 µg/mL.

What about the MIC ([3]; SMA UFR141, alone) of the same compound?
The MIC was 32 µg/mL.

What about the MIC ([3]; SMA UFR142, alone) of the same compound?
Its MIC is over 32 µg/mL.

And the MIC ([3]; SMA UFR143, alone)?
Its MIC is 32 µg/mL.

And the MIC ([3]; SMA UFR239, alone)?
Its MIC is 16 µg/mL.

What about the MIC ([3]; strain SMA UFR140, compound alone) of the same compound?
The MIC was over 32 µg/mL.

What about the MIC ([3]; strain SMA UFR238, compound alone) of the same compound?
The MIC was 32 µg/mL.

And the MIC ([4]; ECO 4133, alone)?
The MIC was 4 µg/mL.

What about the MIC ([4]; ECO 5302, alone) of the same compound?
Its MIC is 4 µg/mL.

What about the MIC ([4]; ECO 131119, alone) of the same compound?
Its MIC is 4 µg/mL.

What about the MIC ([4]; ECO 180070, alone) of the same compound?
The MIC was 4 µg/mL.

And the MIC ([4]; ECO 190314, alone)?
Its MIC is 8 µg/mL.

And the MIC ([4]; ECO 190317, alone)?
Its MIC is 4 µg/mL.

And the MIC ([4]; ECO 190457, alone)?
Its MIC is 4 µg/mL.

And the MIC ([4]; ECO 190549, alone)?
The MIC was 4 µg/mL.

What about the MIC ([4]; ECO 200159, alone) of the same compound?
Its MIC is 4 µg/mL.

What about the MIC ([4]; ECO 200259, alone) of the same compound?
Its MIC is 4 µg/mL.

And the MIC ([4]; ECO 200344, alone)?
Its MIC is 4 µg/mL.

What about the MIC ([4]; ECO 260096, alone) of the same compound?
Its MIC is 16 µg/mL.

What about the MIC ([4]; ECO 260304, alone) of the same compound?
The MIC was 8 µg/mL.

What about the MIC ([4]; ECO 260508, alone) of the same compound?
Its MIC is 8 µg/mL.

And the MIC ([4]; ECO (strain number on grid row 356, not shown), alone)?
Its MIC is 8 µg/mL.

What about the MIC ([4]; ECO RGN238, alone) of the same compound?
Its MIC is 8 µg/mL.

What about the MIC ([4]; ECO UFR15, alone) of the same compound?
The MIC was 8 µg/mL.

What about the MIC ([4]; ECO UFR16, alone) of the same compound?
The MIC was 8 µg/mL.

What about the MIC ([4]; ECO UFR17, alone) of the same compound?
The MIC was over 32 µg/mL.

What about the MIC ([4]; ECO UFR18, alone) of the same compound?
The MIC was 8 µg/mL.

What about the MIC ([4]; ECO UFR19, alone) of the same compound?
Its MIC is 8 µg/mL.

What about the MIC ([4]; ECO UFR32, alone) of the same compound?
The MIC was 8 µg/mL.

And the MIC ([4]; ECO UFR39, alone)?
Its MIC is 8 µg/mL.

What about the MIC ([4]; ECO UFR41, alone) of the same compound?
The MIC was 8 µg/mL.

What about the MIC ([4]; ECO UFR45, alone) of the same compound?
Its MIC is 4 µg/mL.

And the MIC ([4]; ECO UFR52, alone)?
Its MIC is 8 µg/mL.

And the MIC ([4]; ECO UFR61O, alone)?
The MIC was 16 µg/mL.

What about the MIC ([4]; ECO UFR62, alone) of the same compound?
The MIC was 8 µg/mL.

And the MIC ([4]; ECO UFR74, alone)?
Its MIC is 8 µg/mL.

And the MIC ([4]; ECO UFR86, alone)?
The MIC was 16 µg/mL.

And the MIC ([4]; ECO UFR174, alone)?
Its MIC is 4 µg/mL.

What about the MIC ([4]; ECO UFR175, alone) of the same compound?
The MIC was 16 µg/mL.

What about the MIC ([4]; ECO UFR176, alone) of the same compound?
Its MIC is 8 µg/mL.

And the MIC ([4]; ECO UFR184, alone)?
Its MIC is 8 µg/mL.

And the MIC ([4]; ECO UFR208, alone)?
Its MIC is 16 µg/mL.

What about the MIC ([4]; ECO UFR209, alone) of the same compound?
Its MIC is 8 µg/mL.

What about the MIC ([4]; ECO UFR210, alone) of the same compound?
The MIC was 4 µg/mL.

What about the MIC ([4]; ECO UFR211, alone) of the same compound?
Its MIC is 8 µg/mL.

What about the MIC ([4]; ECO UFR212, alone) of the same compound?
Its MIC is 8 µg/mL.

What about the MIC ([4]; ECO URF20, alone) of the same compound?
The MIC was 8 µg/mL.

And the MIC ([4]; strain ECO UFR177, compound alone)?
The MIC was 8 µg/mL.

What about the MIC ([4]; strain ECO UFR178, compound alone) of the same compound?
Its MIC is 16 µg/mL.

And the MIC ([4]; strain ECO UFR179, compound alone)?
Its MIC is 16 µg/mL.

What about the MIC ([4]; strain ECO UFR180, compound alone) of the same compound?
The MIC was 8 µg/mL.

And the MIC ([4]; strain ECO UFR181, compound alone)?
Its MIC is 16 µg/mL.

And the MIC ([4]; strain ECO UFR182, compound alone)?
Its MIC is 16 µg/mL.

What about the MIC ([4]; strain ECO UFR183, compound alone) of the same compound?
Its MIC is 32 µg/mL.

What about the MIC ([4]; strain ECO UFR186, compound alone) of the same compound?
Its MIC is 8 µg/mL.

What about the MIC ([4]; strain ECO UFR187, compound alone) of the same compound?
Its MIC is 32 µg/mL.

And the MIC ([4]; strain ECO UFR189, compound alone)?
Its MIC is 8 µg/mL.

And the MIC ([4]; strain ECO UFR190, compound alone)?
The MIC was 8 µg/mL.

What about the MIC ([4]; strain ECO UFR191, compound alone) of the same compound?
The MIC was 8 µg/mL.

What about the MIC ([4]; strain ECO UFR204, compound alone) of the same compound?
The MIC was 8 µg/mL.

What about the MIC ([4]; strain ECO UFR205, compound alone) of the same compound?
The MIC was 8 µg/mL.

And the MIC ([4]; strain ECO UFR206, compound alone)?
Its MIC is 16 µg/mL.

And the MIC ([4]; strain ECO UFR252GO, compound alone)?
Its MIC is 8 µg/mL.

And the MIC ([4]; strain ECO UFR255, compound alone)?
Its MIC is 4 µg/mL.

What about the MIC ([5]; PRE UFR99, alone) of the same compound?
The MIC was 16 µg/mL.

What about the MIC ([5]; strain PRE UFR96, compound alone) of the same compound?
Its MIC is 4 µg/mL.

And the MIC ([5]; strain PRE UFR97, compound alone)?
Its MIC is 32 µg/mL.

What about the MIC ([5]; strain PRE UFR236, compound alone) of the same compound?
The MIC was 32 µg/mL.
